Source: ChEMBL document CHEMBL2203066 (J Med Chem, 2012)

Experiments:
Influenza A virus [1] = test: Antiviral activity against oseltamivir-resistant Influenza A virus A/WSN/1933/H275Y (pandemic H1N1) infected in MDCK cells assessed as protection against virus-induced cytopathic effect after 48 to 72 hrs by CellTiter 96 aqueous assay; format: functional, organism-based, A/WSN/1933/H275Y(H1N1)
Influenza A virus [2] = test: Antiviral activity against oseltamivir-resistant Influenza A virus A/Hong Kong/2369/09/H275Y(H1N1) infected in MDCK cells assessed as protection against virus-induced cytopathic effect after 48 to 72 hrs by CellTiter 96 aqueous assay; format: functional, organism-based

SMILES | EC50 (Influenza A virus [1]) | EC50 (Influenza A virus [2])
CCC(CC)O[C@@H]1C=C(P(=O)(O)O)C[C@H](NC(=N)N)[C@H]1NC(C)=O | 3.2 µM | 4.6 µM
CCOP(=O)(O)C1=C[C@@H](OC(CC)CC)[C@H](NC(C)=O)[C@@H](N)C1 [TAMIPHOSPHOR MONOETHYL ESTER] | 0.49 µM | 0.44 µM
CCC(CC)O[C@@H]1C=C(P(=O)(O)O)C[C@H](N)[C@H]1NC(C)=O [TAMIPHOSPHOR] | 7.4 µM | 6.55 µM
